The text below walks through data of US10106524B2, “2,3,4,5-tetrahydropyridin-6-amine and 3,4-dihydro-2H-pyrrol-5-amine compound inhibitors of beta-secretase” (Janssen Pharmaceutica NV, priority 2015, dated 2018).

Molecules are shown by their SMILES.

The test system of series [1] is Abeta total produced and secreted by SKNBE2 cells expressing hAPP695. The experiment in a line: Cellular αLisa assay in SKNBE2 cells - Abeta total. The following applies: Homo sapiens, incubated for 18 hours, read-out: Cellular αLisa assay in SKNBE2 cells Abeta total pIC50 (converted). Format: cell-based. On the procedure: (§1) Cellular αLisa Assay in SKNBE2 Cells
(§2) In two αLisa assays the levels of Abeta total and Abeta 1-42 produced and secreted into the medium of human neuroblastoma SKNBE2 cells are quantified. The assay is based on the human neuroblastoma SKNBE2 expressing the wild type Amyloid Precursor Protein (hAPP695). The compounds are diluted and added to these cells, incubated for 18 hours and then measurements of Abeta 1-42 and Abeta total are taken. Abeta total and Abeta 1-42 are measured by sandwich αLisa. αLisa is a sandwich assay using biotinylated antibody AbN/25 attached to streptavidin coated beads and antibody Ab4G8 or cAb42/26 conjugated acceptor beads for the detection of Abeta total and Abeta 1-42 respectively. In the presence of Abeta total or Abeta 1-42, the beads come into close proximity. The excitation of the donor beads provokes the release of singlet oxygen molecules that trigger a cascade of energy transfer in the acceptor beads, resulting in light emission. Light emission is measured after 1 hour incubation (excitation at […] and emission at 615 nm).
(§3) A best-fit curve is fitted by a minimum sum of squares method to the plot of % Controlmin versus compound concentration. From this an IC50 value (inhibitory concentration causing 50% inhibition of activity) can be obtained.

The target in series [2] is T1, recombinant BACE2 protein (Homo sapiens, UniProt Q9Y5Z0).
T1 construct: recombinant BACE2 protein in a final concentration of 0.4 μg/nil
T1 sequence (Q9Y5Z0 63-518): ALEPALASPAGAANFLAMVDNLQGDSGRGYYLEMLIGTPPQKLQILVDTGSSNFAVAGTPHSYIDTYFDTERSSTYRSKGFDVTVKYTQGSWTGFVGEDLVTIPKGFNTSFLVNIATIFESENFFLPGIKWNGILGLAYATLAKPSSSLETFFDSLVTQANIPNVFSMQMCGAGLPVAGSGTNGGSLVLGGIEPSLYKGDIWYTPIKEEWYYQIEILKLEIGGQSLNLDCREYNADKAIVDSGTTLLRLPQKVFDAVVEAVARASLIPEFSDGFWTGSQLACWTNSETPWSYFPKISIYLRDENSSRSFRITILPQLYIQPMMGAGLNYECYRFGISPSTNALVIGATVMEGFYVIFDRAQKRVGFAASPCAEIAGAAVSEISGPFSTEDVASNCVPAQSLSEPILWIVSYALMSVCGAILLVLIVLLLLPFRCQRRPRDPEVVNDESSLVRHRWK
Put plainly: BACE2 biochemical FRET based assay. Particulars: BACE2 0.4 μg/nil, 450 minutes, 10 μM substrate, pH 5.0; read-out: Biochemical FRET based assay pIC50 (BACE2) (converted).
Text: BACE2 Biochemical FRET Based Assay
(§4) This assay is a Fluorescence Resonance Energy Transfer Assay (FRET) based assay. The substrate for this assay contains the ‘Swedish’ Lys-Met/Asn-Leu mutation of the amyloid precursor protein (APP) beta-secretase cleavage site. This substrate also contains two fluorophores: (7-methoxycoumarin-4-yl) acetic acid (Mca) is a fluorescent donor with excitation wavelength at 320 nm and emission at 405 nm and 2,4-Dinitrophenyl (Dnp) is a proprietary quencher acceptor. […] Upon cleavage by the beta-secretase, the fluorophore Mca is separated from the quenching group Dnp, restoring the full fluorescence yield of the donor. The increase in fluorescence is linearly related to the rate of proteolysis.
Briefly in a 384-well format recombinant BACE2 protein in a final concentration of […] is incubated for 450 minutes at room temperature with 10 μM substrate in incubation buffer (50 mM Citrate buffer pH 5.0, 0.05% PEG, no DMSO) in the absence or presence of compound. Next the amount of proteolysis is directly measured by fluorescence measurement at T=0 and T=450 (excitation at 320 nm and emission at 405 nm). Results are expressed in RFU (Relative Fluorescence Units), as difference between T450 and T0.
as §3

Series [3] relates to Abeta 1-42 produced and secreted by SKNBE2 cells expressing hAPP695. The experiment in a line: Cellular αLisa assay in SKNBE2 cells - Abeta 42. The following applies: Homo sapiens, incubated for 18 hours, read-out: Cellular αLisa assay in SKNBE2 cells Abeta 42 pIC50 (converted). Format: cell-based, human. How it is done:
as §1, §2, §3

The target of series [4] is T2, recombinant BACE1 protein (Homo sapiens, UniProt P56817).
T2 construct: recombinant BACE1 protein in a final concentration of 1 μg/ml
The experiment in a line: BACE1 biochemical FRET based assay - Method 2. The following applies: BACE1 0.04 μg/ml, 450 minutes, 20 μM substrate, pH 5.0; read-out: Biochemical FRET based assay- Method 2 pIC50 (converted).
Text: (§5) BACE1 Biochemical FRET Based Assay
as §4, with “this assay is an APP derived 13 amino acids peptide that contains the” for “this assay contains the”, “cleavage by BACE1, the fluorophore” for “cleavage by the beta-secretase, the fluorophore”
Briefly in a 384-well format recombinant BACE1 protein in a final concentration of 0.04 μg/ml is incubated for 450 minutes at room temperature with 20 μM substrate in incubation buffer (50 mM Citrate buffer pH 5.0, 0.05% PEG) in the presence of compound or DMSO. Next the amount of proteolysis is directly measured by fluorescence measurement (excitation at 320 nm and emission at 405 nm) at different incubation times (0, 30, 60, 90, 120 and 450 min). For every experiment a time curve (every 30 min between 0 min and 120 min) is used to determine the time where we find the lowest basal signal of the high control. The signal at this time (Tx) is used to subtract from the signal at 450 min. Results are expressed in RFU, as difference between T450 and Tx.
as §3

In series [5] the target is T2, recombinant BACE1 protein. The experiment in a line: BACE1 biochemical FRET based assay - Method 1. Particulars: BACE1 1 μg/ml, 120 minutes, 10 μm substrate, pH 5.0; read-out: Biochemical FRET based assay - Method 1 pIC50 (converted).
Text: as §5
as §4, with “this assay is an APP derived 13 amino acids peptide that contains the” for “this assay contains the”, “cleavage by BACE1, the fluorophore” for “cleavage by the beta-secretase, the fluorophore”
Briefly in a 384-well format recombinant BACE1 protein in a final concentration of 1 μg/ml is incubated for 120 minutes at room temperature with 10 μm substrate in incubation buffer (40 mM Citrate buffer pH 5.0, 0.04% PEG, 4% DMSO) in the absence or presence of compound. Next the amount of proteolysis is directly measured by fluorescence measurement at T=0 and T=120 (excitation at 320 nm and emission at 405 nm). Results are expressed in RFU (Relative Fluorescence Units), as difference between T120 and T0.
as §3

T2 sequence (P56817 46-501): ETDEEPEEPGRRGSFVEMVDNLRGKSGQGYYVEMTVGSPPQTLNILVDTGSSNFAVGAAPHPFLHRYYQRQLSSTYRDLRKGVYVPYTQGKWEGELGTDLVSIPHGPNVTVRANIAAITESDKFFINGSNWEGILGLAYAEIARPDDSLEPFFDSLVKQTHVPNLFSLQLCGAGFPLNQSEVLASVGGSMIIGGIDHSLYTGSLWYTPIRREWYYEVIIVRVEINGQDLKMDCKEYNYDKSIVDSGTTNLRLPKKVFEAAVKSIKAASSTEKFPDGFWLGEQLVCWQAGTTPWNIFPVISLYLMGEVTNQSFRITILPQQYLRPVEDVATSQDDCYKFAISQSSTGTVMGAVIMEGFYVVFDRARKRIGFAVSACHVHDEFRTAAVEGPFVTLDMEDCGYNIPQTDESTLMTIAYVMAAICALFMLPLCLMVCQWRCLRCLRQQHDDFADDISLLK

The compound `CC1(c2cc(NC(=O)c3ccc(Cl)cn3)ccc2F)N=C(N)CC1C(F)(F)F` (racemic) [Compound 15, (±)-N-(3-((2S*,3R*)-5-amino-2-methyl-3-(trifluoromethyl)-3,4-dihydro-2H-pyrrol-2-yl)-4-fluorophenyl)-5-chloropicolinamide] came in with a melting point of 240.62 °C. In series [1], the IC50 was 129 nM. For the same compound, the IC50 in series [2] is 912 nM. Besides, the IC50 in series [3] is 100 nM. Moreover, the IC50 in series [4] is 490 nM.

For `Cc1nc(C(=O)Nc2ccc(F)c(C3(C)N=C(N)CC3C(F)(F)F)c2)co1` (racemic) [Compound 16, (±)-N-[3-1[(2S*,3R*)-5-amino-2-methyl-3-(trifluoromethyl)-3,4-dihydropyrrol-2-yl]-4-fluoro-phenyl]-2-methyl-oxazole-4-carboxamide], the melting point is 207.05 °C. In addition, in series [1], the IC50 is 240 nM. The IC50 in series [2] is 537 nM. Also, the IC50 in series [3] was 251 nM. Also, in series [4], the IC50 is 1150 nM.

In turn, `COc1cccnc1Nc1ccc(F)c(C2(C)N=C(N)CC2C(F)(F)F)c1` (racemic) [Compound 21, (+)-N-[3-[(2S*,3R*)-5-amino-2-methyl-3-(trifluoromethyl)-3,4-dihydropyrrol-2-yl]-4-fluoro-phenyl]-3-methoxy-pyridin-2-amine] registered a melting point of 184.2 °C. The IC50 in series [2] is 933 nM. Moreover, in series [3], the IC50 is 389 nM. In addition, the IC50 in series [4] is 2400 nM.

The compound `CC1(c2cc(NC(=O)c3ccc(Br)cn3)ccc2F)N=C(N)CC1C(F)(F)F` (racemic) [Compound 40, (±)-N-[3-[(2S*,3R*)-5-amino-2-methyl-3-(trifluoromethyl)-3,4-dihydropyrrol-2-yl]-4-fluoro-phenyl]-5-bromo-pyridine-2-carboxamide] gave a melting point of 243.4 °C. Further, the IC50 in series [4] is 324 nM.

For `COCCOc1cnc(C(=O)Nc2ccc(F)c([C@@]3(C)N=C(N)C[C@H]3C(F)(F)F)c2)cn1` (relative stereo) [Compound 23, (±)-N-[3-[(2S*,3R*)-5-amino-2-methyl-3-(trifluoromethyl)-3,4-dihydropyrrol-2-yl]-4-fluoro-phenyl]-5-(2-methoxyethoxy)pyrazine-2-carboxamide], the melting point worked out at 165.48 °C. Besides, in series [2], the IC50 is above 10000 nM. Moreover, in series [3], the IC50 was 347 nM. Also, in series [4], the IC50 is 776 nM.

In turn, `COc1cnc(C(=O)Nc2cccc([C@]3(C)C[C@@H](C(F)(F)F)CC(N)=N3)c2)cn1` [Compound 3, N-{3-[(2S,4R)-6-amino-2-methyl-4-(trifluoromethyl)-2,3,4,5-tetrahydropyridin-2-yl]phenyl}-5-methoxypyrazine-2-carboxamide] yielded a melting point of 171.93 °C. The IC50 in series [1] was 8.71 nM. The IC50 in series [2] is 339 nM. Besides, the IC50 in series [5] was 31.6 nM. In addition, the IC50 in series [3] was 9.55 nM. Besides, in series [4], the IC50 was 25.1 nM.

Consider `COc1cnc(C(=O)Nc2cccc([C@]3(C)C[C@H](C(F)(F)F)CC(N)=N3)c2)cn1` [Compound 4, N-{3-[(2S,4S)-6-amino-2-methyl-4-(trifluoromethyl)-2,3,4,5-tetrahydropyridin-2-yl]phenyl}-5-methoxypyrazine-2-carboxamide], for which the melting point was 138.66 °C. Moreover, the IC50 in series [1] is 1950 nM. In addition, in series [2], the IC50 was above 10000 nM. For the same compound, in series [5], the IC50 was above 30200 nM. The IC50 in series [3] is 2340 nM. In series [4], the IC50 was above 10000 nM.

Regarding `C[C@@]1(c2cccc(NC(=O)c3ccc(C#N)cn3)c2)C[C@H](C(F)(F)F)CC(N)=N1` [Compound 8, N-[3-[(2S,4S)-6-amino-2-methyl-4-(trifluoromethyl)-4,5-dihydro-3H-pyridin-2-yl]phenyl]-5-cyano-pyridine-2-carboxamide], the IC50 in series [1] was 2510 nM; in series [2], above 10000 nM; in series [5], 9770 nM; in series [3] it was 2290 nM; in series [4], 6760 nM.

In the case of `COc1cnc(C(=O)Nc2ccc(F)c([C@]3(C)C[C@@H](C(F)(F)F)CC(N)=N3)c2)cn1` [Compound 9, N-{3-[(2S,4R)-6-amino-2-methyl-4-(trifluoromethyl)-4,5-dihydro-3H-pyridin-2-yl]-4-fluoro-phenyl]-5-methoxy-pyrazine-2-carboxamide], the IC50 in series [1] was 5.89 nM; in series [2] it was 67.6 nM; in series [5] it was 38.9 nM; in series [3], 5.25 nM; in series [4], 7.59 nM.

`C[C@@]1(c2cc(NC(=O)c3ccc(C#N)cn3)ccc2F)C[C@@H](C(F)(F)F)CC(N)=N1` [Compound 10] showed a melting point of 205.8 °C. Further, the IC50 in series [1] is 3.8 nM. The IC50 in series [2] was 25.7 nM. For the same compound, the IC50 in series [5] was 36.3 nM. For the same compound, in series [3], the IC50 is 4.27 nM. Also, in series [4], the IC50 is 3.63 nM.

On to `C[C@@]1(c2cc(NC(=O)c3ccc(Cl)cn3)ccc2F)C[C@@H](C(F)(F)F)CC(N)=N1` [Compound 11], for which the IC50 was 2 nM in series [1]; 4.07 nM in series [2]; 30.9 nM in series [5]; 2.34 nM in series [3]; 2.63 nM in series [4].

With `C[C@@]1(c2cc(NC(=O)c3ccc(F)cn3)ccc2F)C[C@@H](C(F)(F)F)CC(N)=N1` [Compound 12], the melting point was found to be 199.22 °C. For the same compound, the IC50 in series [1] was 7.76 nM. Further, the IC50 in series [2] was 10.7 nM. For the same compound, the IC50 in series [5] was 51.3 nM. Besides, the IC50 in series [3] was 7.59 nM. Also, the IC50 in series [4] is 15.5 nM.

The term melting point denotes the temperature of the solid-liquid transition.
